Laboratory results reported in US9700509B2, “Solutions of lipophilic substances, especially medicinal solutions” (UNIVERSITÄT REGENSBURG, priority 2008, dated 2017).

Test: Dissolution in polyethylene glycol 400 (appearance of solution, microscope)
Format: physicochemical
Conditions: 20 mg phospholipid DHGPC in 1 ml polyethylene glycol 400, 21° C.
Text: Polyethylene glycol 400 served as solvent. […] This was confirmed under a microscope.
Microscope images confirmed this.

## CCCCCCC(=O)OC[C@H](COP(=O)([O-])OCC[N+](C)(C)C)OC(=O)CCCCCC [DHGPC, diheptanoyl glycerophosphocholine]
  appearance of solution: clear solution
